Results as given in patent publication US20240116921A1, “LACTAM (HETERO)[…] DERIVATIVES AS INHIBITORS OF ERBB2” (EnLiven Therapeutics, Inc., priority 2020, published 2024).

Tests used:
[1] = tested on: MDA-MB-175VII; assay: Cell viability assay (CellTiter Glo), MDA-MB-175VII; format: cell-based; conditions: Homo sapiens; MDA MB 175VII cells, 72 hours, CellTiter Glo; read-out: IC50, cell viability, MDA MB 175VII
Experimental: (§1) Cells were treated with compounds, and cell viability was measured as a metric of kinase inhibition.
(§2) The Ba/F3 cell line is IL-3-dependent mouse cell line derived from the C3H mouse strain. Ba/F3 cell lines were engineered to express human ERBB2 or EGFR kinases, rendering the cells IL-3 independent. The lines were generated via retroviral transduction utilizing a Moloney murine leukemia virus (MMLV) promoter, and constructs are stably integrated into the cell genome. The sequences of the ERBB2 and EGFR genes used were NCBI Reference Sequences NM_004448.3 and NM_005228.3, respectively.
(§3) Similarly, Ba/F3 cell lines engineered to express EGFR, ERBB2, or ERBB2 mutants were grown, harvested, counted and seeded at 3000 cells per well in 96-well plates. A subset of wells contained media only (low control, “LC”).
(§4) Table B1 provides the growth media and number of cells seeded per well for the each cell line.
(§5) Plates were placed in a 37° C., 5% CO2 incubator for 72 hours. Plates were then removed from the incubator and equilibrated for 15 minutes at room temperature. 40 μl of CellTiter Glo reagent (Promega) was added to measure the relative level of metabolically active cells by quantifying intracellular ATP concentrations. Plates were incubated for 30 minutes at room temperature, and luminescence was measured. Percent viability was normalized to a vehicle control only using the following formula: % viability=100×(Lumsample−LumLC)/(LumHC−Lum^LC). Graphical curves were fitted using a nonlinear regression model with a sigmoidal dose response.

[2] = target: Ba/F3 ERBB2 wt (Homo sapiens, UniProt P04626); assay: Cell viability assay, Ba/F3 ERBB2 wt; format: cell-based, mouse; conditions: Ba/F3 ERBB2 wt cells, 72 hours, CellTiter Glo; read-out: IC50, cell viability, Ba/F3 ERBB2 wt
Chain of Ba/F3 ERBB2 wt (P04626 whole entry, change not shown): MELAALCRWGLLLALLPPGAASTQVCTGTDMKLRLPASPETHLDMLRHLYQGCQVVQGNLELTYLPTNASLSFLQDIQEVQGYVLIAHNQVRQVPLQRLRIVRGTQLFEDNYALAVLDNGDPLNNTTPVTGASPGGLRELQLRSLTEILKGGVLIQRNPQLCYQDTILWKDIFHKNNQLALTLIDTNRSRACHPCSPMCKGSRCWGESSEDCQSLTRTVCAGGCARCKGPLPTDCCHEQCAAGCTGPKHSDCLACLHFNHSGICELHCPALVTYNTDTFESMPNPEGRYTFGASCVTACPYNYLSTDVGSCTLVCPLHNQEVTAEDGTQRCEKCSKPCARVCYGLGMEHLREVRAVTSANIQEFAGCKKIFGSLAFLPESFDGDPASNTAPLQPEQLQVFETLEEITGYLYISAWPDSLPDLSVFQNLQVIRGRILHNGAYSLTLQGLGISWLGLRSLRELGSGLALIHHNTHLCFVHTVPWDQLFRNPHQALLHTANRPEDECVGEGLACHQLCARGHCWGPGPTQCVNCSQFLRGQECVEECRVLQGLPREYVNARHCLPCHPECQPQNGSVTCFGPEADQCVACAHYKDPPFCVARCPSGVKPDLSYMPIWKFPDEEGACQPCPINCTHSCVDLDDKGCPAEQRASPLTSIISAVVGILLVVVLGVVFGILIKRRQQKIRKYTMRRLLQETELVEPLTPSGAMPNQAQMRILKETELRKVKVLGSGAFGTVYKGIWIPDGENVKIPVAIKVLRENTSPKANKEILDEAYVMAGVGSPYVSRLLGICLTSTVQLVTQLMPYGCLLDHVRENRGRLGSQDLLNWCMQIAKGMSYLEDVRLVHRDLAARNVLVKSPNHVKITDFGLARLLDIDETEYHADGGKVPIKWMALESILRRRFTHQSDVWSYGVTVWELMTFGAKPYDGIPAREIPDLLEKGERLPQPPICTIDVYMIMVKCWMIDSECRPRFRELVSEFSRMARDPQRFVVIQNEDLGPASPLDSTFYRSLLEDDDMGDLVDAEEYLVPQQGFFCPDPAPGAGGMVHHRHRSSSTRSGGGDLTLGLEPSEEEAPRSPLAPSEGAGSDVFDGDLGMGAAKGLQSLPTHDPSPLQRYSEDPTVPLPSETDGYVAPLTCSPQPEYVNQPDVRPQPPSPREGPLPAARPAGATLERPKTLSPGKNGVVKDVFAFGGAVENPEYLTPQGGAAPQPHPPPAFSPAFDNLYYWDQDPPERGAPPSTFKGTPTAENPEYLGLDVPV
Experimental: as §1, §2, §3, §4, §5

[3] = target: Ba/F3 ERBB2 A775_G776insYVMA (Homo sapiens, UniProt P04626, DUP772-775, cells depend on it); assay: Cell viability assay, Ba/F3 ERBB2 A775_G776insYVMA; format: cell-based, mouse; conditions: Ba/F3 ERBB2 A775_G776insYVMA cells, 72 hours, CellTiter Glo; Tables B2-B4; read-out: IC50, cell viability, Ba/F3 ERBB2 A775_G776insYVMA
Chain of Ba/F3 ERBB2 A775_G776insYVMA (P04626 with tags, fused parts or gaps DUP772-775): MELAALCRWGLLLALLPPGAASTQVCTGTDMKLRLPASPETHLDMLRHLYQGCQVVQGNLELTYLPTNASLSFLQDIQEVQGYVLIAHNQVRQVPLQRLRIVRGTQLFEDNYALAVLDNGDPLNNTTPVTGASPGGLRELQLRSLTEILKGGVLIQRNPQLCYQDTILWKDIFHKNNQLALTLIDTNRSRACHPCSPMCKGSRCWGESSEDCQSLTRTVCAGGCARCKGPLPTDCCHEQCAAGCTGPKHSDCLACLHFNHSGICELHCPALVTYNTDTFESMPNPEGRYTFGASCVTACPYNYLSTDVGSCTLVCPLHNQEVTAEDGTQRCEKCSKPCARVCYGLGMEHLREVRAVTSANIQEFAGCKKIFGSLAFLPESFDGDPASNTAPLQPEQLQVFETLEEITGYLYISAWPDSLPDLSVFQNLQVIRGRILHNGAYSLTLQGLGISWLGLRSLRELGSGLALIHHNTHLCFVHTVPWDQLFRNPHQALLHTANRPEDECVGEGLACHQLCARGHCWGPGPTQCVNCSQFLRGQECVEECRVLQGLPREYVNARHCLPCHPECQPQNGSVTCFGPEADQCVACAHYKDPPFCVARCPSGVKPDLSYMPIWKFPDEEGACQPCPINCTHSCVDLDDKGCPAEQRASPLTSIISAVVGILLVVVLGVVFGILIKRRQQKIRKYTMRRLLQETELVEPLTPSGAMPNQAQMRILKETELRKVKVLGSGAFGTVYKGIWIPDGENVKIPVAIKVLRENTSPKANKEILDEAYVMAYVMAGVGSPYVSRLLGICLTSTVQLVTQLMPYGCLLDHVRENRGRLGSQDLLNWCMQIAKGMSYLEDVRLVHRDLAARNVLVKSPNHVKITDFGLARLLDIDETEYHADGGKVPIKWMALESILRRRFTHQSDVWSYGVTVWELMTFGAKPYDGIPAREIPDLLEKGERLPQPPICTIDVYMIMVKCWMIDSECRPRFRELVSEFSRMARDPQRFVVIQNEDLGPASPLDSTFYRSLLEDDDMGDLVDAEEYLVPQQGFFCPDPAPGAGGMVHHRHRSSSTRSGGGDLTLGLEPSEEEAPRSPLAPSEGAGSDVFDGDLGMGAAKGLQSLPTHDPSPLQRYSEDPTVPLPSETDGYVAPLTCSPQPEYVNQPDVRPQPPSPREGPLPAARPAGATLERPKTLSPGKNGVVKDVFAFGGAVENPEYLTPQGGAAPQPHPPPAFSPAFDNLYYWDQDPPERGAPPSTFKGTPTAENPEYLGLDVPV
Summary of the method: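 Viability after 72 h compound treatment (37 °C, 5% CO2) was quantified by CellTiter-Glo luminescence of intracellular ATP, with sigmoidal dose-response fitting. Cells were retrovirally engineered Ba/F3 lines whose growth depends on the mutant human ERBB2 in place of IL-3, plated at 3000 per well.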

[4] = target: Ba/F3 EGFR wt (Homo sapiens, UniProt P00533); assay: Cell viability assay, Ba/F3 EGFR wt; format: cell-based, mouse; conditions: Ba/F3 EGFR wt cells, 72 hours, CellTiter Glo; read-out: IC50, cell viability, Ba/F3 EGFR wt
Chain of Ba/F3 EGFR wt (P00533 whole entry, change not shown): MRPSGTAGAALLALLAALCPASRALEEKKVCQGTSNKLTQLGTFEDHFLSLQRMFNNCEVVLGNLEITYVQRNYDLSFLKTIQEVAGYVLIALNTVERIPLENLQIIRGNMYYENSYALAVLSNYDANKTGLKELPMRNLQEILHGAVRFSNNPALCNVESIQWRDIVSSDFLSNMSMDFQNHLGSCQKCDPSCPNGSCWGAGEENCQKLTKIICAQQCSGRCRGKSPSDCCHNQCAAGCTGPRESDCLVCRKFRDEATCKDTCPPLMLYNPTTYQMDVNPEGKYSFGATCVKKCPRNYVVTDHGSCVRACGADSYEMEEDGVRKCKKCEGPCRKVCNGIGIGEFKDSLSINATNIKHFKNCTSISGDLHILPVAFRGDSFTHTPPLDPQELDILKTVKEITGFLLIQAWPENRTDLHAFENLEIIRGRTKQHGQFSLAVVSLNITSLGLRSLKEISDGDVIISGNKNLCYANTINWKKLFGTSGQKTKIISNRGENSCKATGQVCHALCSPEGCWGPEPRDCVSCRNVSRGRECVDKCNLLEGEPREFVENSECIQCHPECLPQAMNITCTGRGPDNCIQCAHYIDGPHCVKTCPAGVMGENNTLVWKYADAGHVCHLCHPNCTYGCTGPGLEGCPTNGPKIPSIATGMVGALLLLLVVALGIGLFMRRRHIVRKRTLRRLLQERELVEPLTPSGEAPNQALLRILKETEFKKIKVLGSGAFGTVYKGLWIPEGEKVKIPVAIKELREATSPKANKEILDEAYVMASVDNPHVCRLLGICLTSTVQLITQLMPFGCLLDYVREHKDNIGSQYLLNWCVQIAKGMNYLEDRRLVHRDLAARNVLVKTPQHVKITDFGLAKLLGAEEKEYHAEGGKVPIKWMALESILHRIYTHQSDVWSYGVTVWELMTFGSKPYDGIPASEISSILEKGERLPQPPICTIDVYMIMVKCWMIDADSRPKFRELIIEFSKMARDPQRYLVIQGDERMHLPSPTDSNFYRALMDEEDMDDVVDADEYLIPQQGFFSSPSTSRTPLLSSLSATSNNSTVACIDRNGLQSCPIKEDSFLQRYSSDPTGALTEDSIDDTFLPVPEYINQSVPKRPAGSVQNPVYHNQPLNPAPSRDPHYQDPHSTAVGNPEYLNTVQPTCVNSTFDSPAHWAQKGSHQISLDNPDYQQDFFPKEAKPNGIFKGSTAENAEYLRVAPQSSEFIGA
Experimental: as §1, §2, §3, §4
(§6) Plates were placed in a 37° C., 5% CO2 incubator for 72 hours. Plates were then removed from the incubator and equilibrated for 15 minutes at room temperature. 40 μl of CellTiter Glo reagent (Promega) was added to measure the relative level of metabolically active cells by quantifying intracellular ATP concentrations. Plates were incubated for 30 minutes at room temperature, and luminescence was measured. […]

[5] = target: BaF3-EGFR-V769_D770insASV (Homo sapiens, UniProt P00533, DUP767-769, cells depend on it); assay: Cell viability assay, BaF3-EGFR-V769_D770insASV; format: cell-based, mouse; conditions: 72 hours, CellTiter Glo, read-out: IC50, cell viability, BaF3-EGFR-V769_D770insASV
Experimental: as §1, §2, §3, §4, §6

[6] = target: BaF3_EGFR-D770-N771insSVD (Homo sapiens, UniProt P00533, DUP768-770, cells depend on it); assay: Cell viability assay, BaF3_EGFR-D770-N771insSVD; format: cell-based, mouse; conditions: 72 hours, CellTiter Glo, read-out: IC50, cell viability, BaF3_EGFR-D770-N771insSVD
Experimental: as §1, §2, §3, §4, §6

[7] = target: BaF3_EGFR-H773_V774insNPH (Homo sapiens, UniProt P00533, DUP771-773, cells depend on it); assay: Cell viability assay, BaF3_EGFR-H773_V774insNPH; format: cell-based, mouse; conditions: 72 hours, CellTiter Glo, read-out: IC50, cell viability, BaF3_EGFR-H773_V774insNPH
Experimental: as §1, §2, §3, §4, §6

[8] = target: T1, phosphorylated ERBB2 (pERBB2) (Homo sapiens, UniProt P04626); assay: Detection of phosphorylated ERBB2 (pERBB2) by ELISA in BT-474 cells; format: cell-based; conditions: four hours incubation
T1 construct: endogenous in cells; host or cells: BT-474
T1 sequence (P04626 23-1255): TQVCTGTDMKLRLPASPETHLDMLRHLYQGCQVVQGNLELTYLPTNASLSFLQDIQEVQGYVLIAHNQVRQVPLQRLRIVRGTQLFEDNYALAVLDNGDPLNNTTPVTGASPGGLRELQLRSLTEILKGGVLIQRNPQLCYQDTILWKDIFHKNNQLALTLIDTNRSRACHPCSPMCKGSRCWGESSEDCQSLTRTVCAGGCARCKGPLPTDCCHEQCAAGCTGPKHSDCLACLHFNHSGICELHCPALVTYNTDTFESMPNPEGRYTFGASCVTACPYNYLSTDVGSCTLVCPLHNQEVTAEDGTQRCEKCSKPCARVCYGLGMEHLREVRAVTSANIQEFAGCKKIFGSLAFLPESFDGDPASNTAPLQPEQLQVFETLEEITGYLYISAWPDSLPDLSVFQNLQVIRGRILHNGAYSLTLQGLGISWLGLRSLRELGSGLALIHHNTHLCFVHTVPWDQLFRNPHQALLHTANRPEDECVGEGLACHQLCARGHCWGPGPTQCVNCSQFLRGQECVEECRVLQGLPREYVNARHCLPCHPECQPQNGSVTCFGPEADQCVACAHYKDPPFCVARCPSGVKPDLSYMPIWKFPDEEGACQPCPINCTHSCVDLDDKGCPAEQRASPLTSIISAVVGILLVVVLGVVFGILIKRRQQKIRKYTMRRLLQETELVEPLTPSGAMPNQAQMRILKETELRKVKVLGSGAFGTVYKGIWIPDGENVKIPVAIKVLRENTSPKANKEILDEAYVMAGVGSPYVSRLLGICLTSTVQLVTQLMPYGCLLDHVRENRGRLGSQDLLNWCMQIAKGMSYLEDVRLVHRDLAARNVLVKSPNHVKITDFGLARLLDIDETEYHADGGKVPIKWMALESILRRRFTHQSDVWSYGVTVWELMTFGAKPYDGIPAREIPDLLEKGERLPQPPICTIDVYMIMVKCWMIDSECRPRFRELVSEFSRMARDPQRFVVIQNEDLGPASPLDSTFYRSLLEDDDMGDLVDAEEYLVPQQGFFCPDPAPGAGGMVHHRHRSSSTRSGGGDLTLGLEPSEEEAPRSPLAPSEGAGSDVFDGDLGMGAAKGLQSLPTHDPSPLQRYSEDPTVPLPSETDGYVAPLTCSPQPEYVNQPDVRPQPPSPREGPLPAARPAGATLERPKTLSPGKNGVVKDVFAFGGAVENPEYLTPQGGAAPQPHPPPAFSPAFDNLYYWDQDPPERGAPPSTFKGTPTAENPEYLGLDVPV
Summary of the method: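 Phospho-ERBB2 in lysates was quantified by sandwich ELISA (A450, TMB) after 4 h compound exposure at 37 °C of BT-474 cells seeded at 2.0×10^4 per well. Compounds tested at 10 µM to 0.01 nM final in four-fold steps; activity normalized to DMSO (0.1%) high and cell-free low controls.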

Row | SMILES | IC50 [1] [nM] | GI50 [2] [nM] | GI50 [3] [nM] | GI50 [4] [nM] | GI50 [5] [nM] | GI50 [6] [nM] | GI50 [7] [nM] | IC50 [8] [nM]
1 | C=C1CCN(c2ccc3ncnc(Nc4ccc(Oc5ccn6ncnc6c5)c(C)c4)c3c2)C1=O [Compound 1, 1-[4-[(3-methyl-4-[[1,2,4]triazolo[1,5-a]pyridin-7-yloxy]phenyl)amino]quinazolin-6-yl]-3-methylidenepyrrolidin-2-one] | 15 | 2.3 | 28 | > 10000 | 4510 | 4060 | 9830 | 7.94
2 | C=C1CCN(c2ccc3ncnc(Nc4ccc(Oc5ccn6ccnc6c5)c(C)c4)c3c2)C1=O [Compound 4, 1-[4-[(4-[imidazo[1,2-a]pyridin-7-yloxy]-3-methylphenyl)amino]quinazolin-6-yl]-3-methylidenepyrrolidin-2-one] | – | 3.9 | 16 | – | – | – | – | 5.17
